Here are results for one compound from patent US20250295577A1, “EXTRACT OF YOUNG FLOWERS AND COSMETIC USES” (SOCIETE INDUSTRIELLE LIMOUSINE D'APPLICATION BIOLOGIQUE, priority 2021, published 2025).

For the experiment, the system named is human fibroblasts derived from older donors. The experiment in a line: Cell migration of human fibroblasts (wound, crystal violet, occupied surface). The class given is cell-based. To be noted: for Cell migration: vs older control (Table 5). Here is the method:
Cell migration is the ability of certain cells to move. In vitro, it is evaluated by the number of cells covering a surface that is initially empty (Kim et al., 2015; Lampugnani, 1999). The migratory capacity of the cells is reduced with age (Boulter et al., 2013).
Their action was studied on a human fibroblast culture derived from older donors.
On D0, the human fibroblasts are seeded and incubated at 37° C.
After several days of culture, the insert is removed from the culture chamber, creating a wound. The cells are treated with an active ingredient according to the invention or the red flower extract or a solution of N-(1-deoxy-1-fructosyl)-proline then incubated at 37° C.
After several days of culture, the cells are stained with a crystal violet solution at 0.5% (M/V). The viewing is done with an AxioCam MRc camera with microscope coupled to an image analysis system.
The surface ratio occupied by the cells is calculated automatically using software.

Regarding `O=C(CN1CCCC1C(=O)O)C(O)C(O)C(O)CO` (stereo not shown) [N-(1-deoxy-1-fructosyl)-proline], the Occupied surface ratio by setting is: (1.5 ppm (Table 5)) 0.266 UA; (5 ppm (Table 5)) 0.328 UA. Moreover, the Cell migration reads like this: (1.5 ppm) 0%; (5 ppm) “+19%”.
